Experimental data: patent US20260166040A1 (AMGEN INC., priority 2022, published 2026)

Legend:
[1] = tested on: phosphorylation of extracellular signal-regulated kinase (ERK); conditions: preclinical studies; cited from earlier work
BCRP transporter = target: T1, BCRP transporter (Homo sapiens, UniProt Q9UNQ0); assay: In vitro BCRP transporter inhibition; format: in vitro ADME
T1 sequence (Q9UNQ0 1-655): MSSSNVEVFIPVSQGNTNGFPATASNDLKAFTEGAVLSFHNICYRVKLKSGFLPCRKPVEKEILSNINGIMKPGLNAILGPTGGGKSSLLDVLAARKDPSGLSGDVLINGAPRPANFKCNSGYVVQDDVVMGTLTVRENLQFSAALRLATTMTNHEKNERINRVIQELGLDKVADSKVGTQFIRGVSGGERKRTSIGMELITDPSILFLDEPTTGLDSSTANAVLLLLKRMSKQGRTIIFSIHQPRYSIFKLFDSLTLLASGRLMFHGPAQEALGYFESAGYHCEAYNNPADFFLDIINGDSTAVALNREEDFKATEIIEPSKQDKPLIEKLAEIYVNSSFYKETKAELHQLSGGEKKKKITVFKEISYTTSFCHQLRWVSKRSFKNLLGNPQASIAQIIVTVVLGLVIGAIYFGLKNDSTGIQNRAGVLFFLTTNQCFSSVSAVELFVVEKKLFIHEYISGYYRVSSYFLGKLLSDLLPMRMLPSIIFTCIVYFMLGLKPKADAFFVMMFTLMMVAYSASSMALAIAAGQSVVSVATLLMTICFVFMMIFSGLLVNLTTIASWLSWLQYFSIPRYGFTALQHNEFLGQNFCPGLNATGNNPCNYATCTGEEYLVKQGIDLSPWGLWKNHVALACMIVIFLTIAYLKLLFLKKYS

[2] = Phase I crossover study: safety and tolerability (treatment-emergent adverse events); format: in vivo, human; conditions: for Treatment-emergent adverse events: healthy subjects; for Safety and tolerability: healthy male and female subjects
[3] = Phase I crossover study: plasma pharmacokinetics of sotorasib coadministered with rosuvastatin; format: in vivo, human; conditions: 960 mg sotorasib + 10 mg rosuvastatin, (range)
Description: Times of all PK samples were recorded to the nearest minute.

[4] = incidence !2%; cited from earlier work
[5] = tested on: plasma proteins, mostly albumin; conditions: reversible, independent of plasma concentrations; cited from earlier work
clinical = conditions: human, in vivo, 10 mg
Description: On Day 1, rosuvastatin was administered as a single 10 mg dose (1×10 mg tablet).
All subjects fasted overnight (at least 10 hours) and refrained from consuming water for 1 hour prior to dosing. Subjects refrained from consuming water until 2 hours postdose, excluding the amount of water consumed at dosing, and fasted until 4 hours postdose. At all other times during the study, subjects may have consumed water ad libitum.
Blood samples for determination of rosuvastatin plasma concentrations and PK parameters were collected at hour 0 and at hours 0.5, 1, 2, 3, 4, 5, 6, 8, 10, 12, 24, 36, 48, 72, 96, and 120 hours postdose following administration of rosuvastatin on Days 1 and 6.
Pharmacokinetic analysis was carried out using actual dose administered (mg) and actual postdose blood sampling times. When an actual time was not recorded, it was set to missing and excluded from PK analysis and statistics with sponsor approval.
The parameters Cmax, time of the last quantifiable plasma concentration (tlast), and tmax were obtained directly from the concentration-time profiles. For multiple peaks, the highest postdose concentration was reported as Cmax. In the case that multiple peaks were of equal magnitude, the earliest tmax was reported.

[6] = cited from earlier work

In the case of `C=CC(=O)N1CCN(c2nc(=O)n(-c3c(C)ccnc3C(C)C)c3nc(-c4c(O)cccc4F)c(F)cc23)[C@@H](C)C1` (atropisomer, axis not shown) [sotorasib], the “Inhibition of ERK phosphorylation” value [1] is listed as “inhibited nearly all detectable phosphorylation”, the BCRP inhibition (BCRP transporter) is listed as “inhibitor of BCRP transporter in vitro” and the Treatment-emergent adverse events ([2]; 960 mg sotorasib coadministered with 10 mg rosuvastatin) is listed as “No treatment-emergent adverse events”. The Safety and tolerability ([2]; rosuvastatin 10 mg in combination with sotorasib 960 mg, single oral doses) was “safe and well tolerated” and the tlast [3] was 48.0 (24.0-48.0) h.
For `CC(C)c1nc(N(C)S(C)(=O)=O)nc(-c2ccc(F)cc2)c1/C=C/[C@@H](O)C[C@@H](O)CC(=O)O` [rosuvastatin], the “Most commonly reported adverse reactions” value [4] is listed as “headache, myalgia, abdominal pain, asthenia, and nausea”, the “Bound to plasma proteins” value [5] is listed as 88% and the AUCinf (clinical; both) is listed as 36.2 (60.1) h*ng/mL. The “AUCinf GLSM” value (clinical; both) was 36.2 ng·h/mL, the AUClast GLSM (clinical; both) was 33.2 ng·h/mL and the Cmax (clinical; both) was 3.80 (57.8) ng/mL. For the same molecule, the “Cmax GLSM” value (clinical; both) was 3.80 ng/mL, the half-life (clinical; both) was 13.8 h and the tmax (clinical; both) was 3 h. For the same molecule, the AUC(0-t) (clinical; both, po) was 33.2 ng·h/mL, the CL/F (clinical) was 276 (60.1) L/h and the Elimination half-life ([6]; human, in vivo) was “approximately 19 hours”. The “Excreted in the feces (rosuvastatin and its metabolites)” value ([6]; human, in vivo) was 90%, the “Radiolabeled dose recovered as metabolite” value ([6]; human, in vivo) was “approximately 10%” and the “Cmax and AUC dose dependence” value ([6]; oral administration) was “increased in approximate proportion to dose”. The Absolute bioavailability ([6]; oral) was “approximately 20%”, the Treatment-emergent adverse events ([2]; 10 mg rosuvastatin alone) was “No treatment-emergent adverse events” and the Safety and tolerability ([2]; single oral dose rosuvastatin 10 mg alone) was “safe and well tolerated”.
